Experimental data from PMC11956013, “Structure–Activity Relationships and Evaluation of 2-(Heteroaryl-cycloalkyl)-1H-indoles as Tauopathy Positron Emission Tomography Radiotracers” (Journal of Medicinal Chemistry, 2025).

Assays:
[1] = system: Na+ channel (site 2); experiment: Eurofins panel: Na+ channel (site 2) (antagonist radioligand); type: binding; details: compound concentration 1.0E-05 M
[2] = target: GABAA (alpha1/beta2/gamma2) Human Ion Channel, Picrotoxinin site (Homo sapiens, UniProt P14867+P18507+P47870); experiment: biochemical; type: binding
[3] = target: T1, GABAB(B1b/B2) Human GABA B GPCR (Homo sapiens, UniProt Q9UBS5); experiment: GABAB(B1b/B2) Human GABA B GPCR Mass Spectrometry Binding (Antagonist Ligand) Assay, Cerep, assay 4699
T1 construct: Eurofins (Cerep) assay 4699

[4] = target: T2, Glutamate (Non-Selective) Rat Ion Channel Glycine (Strychnine-Insensitive) (Rattus norvegicus, UniProt P35439); experiment: Glutamate (Non-Selective) Rat Ion Channel Glycine (Strychnine-Insensitive), Mass Spectrometry Binding, assay 5043
T2 construct: Eurofins assay 5043

[5] = target: kappa (h) (KOP) (Homo sapiens, UniProt P41145); experiment: biochemical; type: binding
[6] = system: Ca2+ channel (N); type: binding
[7] = target: T3, M1 (h) (Homo sapiens, UniProt P11229); experiment: biochemical; type: binding
T3 construct: purchased Eurofins (CNS SafetyScreen panel, contract assay) assay 91
T3 sequence (P11229 whole entry): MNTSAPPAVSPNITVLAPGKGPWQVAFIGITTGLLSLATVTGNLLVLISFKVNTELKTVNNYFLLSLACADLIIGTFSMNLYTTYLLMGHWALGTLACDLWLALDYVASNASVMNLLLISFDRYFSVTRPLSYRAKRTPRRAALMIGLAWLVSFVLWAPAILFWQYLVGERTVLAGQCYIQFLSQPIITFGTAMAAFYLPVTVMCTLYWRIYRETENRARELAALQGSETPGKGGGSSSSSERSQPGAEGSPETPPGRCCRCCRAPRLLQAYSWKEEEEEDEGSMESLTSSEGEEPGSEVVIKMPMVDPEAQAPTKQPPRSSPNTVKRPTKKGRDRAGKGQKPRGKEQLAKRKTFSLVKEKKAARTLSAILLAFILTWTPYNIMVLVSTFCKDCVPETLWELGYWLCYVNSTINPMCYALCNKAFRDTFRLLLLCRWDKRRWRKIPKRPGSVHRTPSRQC

[8] = target: norepinephrine transporter (h) (Homo sapiens, UniProt P23975); details: compound concentration 1.0E-05 M
norepinephrine transporter (h), sequence (P23975 whole entry): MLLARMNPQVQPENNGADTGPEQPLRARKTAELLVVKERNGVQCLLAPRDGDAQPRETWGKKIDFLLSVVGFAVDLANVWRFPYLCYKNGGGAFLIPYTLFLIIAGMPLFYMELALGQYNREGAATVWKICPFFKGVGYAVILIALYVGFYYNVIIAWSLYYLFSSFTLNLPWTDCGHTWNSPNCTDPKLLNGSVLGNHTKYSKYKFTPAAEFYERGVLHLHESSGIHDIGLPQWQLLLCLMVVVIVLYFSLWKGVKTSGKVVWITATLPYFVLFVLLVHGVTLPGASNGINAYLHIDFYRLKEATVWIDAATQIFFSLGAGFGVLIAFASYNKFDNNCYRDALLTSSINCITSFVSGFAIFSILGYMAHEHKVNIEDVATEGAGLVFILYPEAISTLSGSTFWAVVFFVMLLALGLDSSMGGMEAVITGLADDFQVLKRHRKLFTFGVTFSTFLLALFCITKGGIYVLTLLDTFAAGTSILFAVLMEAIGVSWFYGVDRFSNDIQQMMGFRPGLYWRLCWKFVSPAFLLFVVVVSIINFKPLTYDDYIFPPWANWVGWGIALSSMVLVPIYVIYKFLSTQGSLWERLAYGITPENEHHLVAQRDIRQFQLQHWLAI

[9] = target: Oxytocin (h) (Homo sapiens, UniProt P30559); details: compound concentration 1.0E-05 M
Oxytocin (h), sequence (P30559 whole entry): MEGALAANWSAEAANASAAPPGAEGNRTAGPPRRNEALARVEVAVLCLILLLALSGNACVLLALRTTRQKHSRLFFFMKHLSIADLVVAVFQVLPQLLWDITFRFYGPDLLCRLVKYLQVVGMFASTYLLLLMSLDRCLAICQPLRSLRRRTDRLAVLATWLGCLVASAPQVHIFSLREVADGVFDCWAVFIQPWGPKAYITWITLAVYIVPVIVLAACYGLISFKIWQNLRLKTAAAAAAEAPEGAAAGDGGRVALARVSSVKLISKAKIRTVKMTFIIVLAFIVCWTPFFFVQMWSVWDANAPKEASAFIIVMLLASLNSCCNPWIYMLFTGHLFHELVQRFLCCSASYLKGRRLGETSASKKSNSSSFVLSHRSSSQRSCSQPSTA

[10] = system: sigma (non-selective) (h); details: compound concentration 1.0E-05 M
[11] = target: alpha2A (h) (Homo sapiens, UniProt P08913); details: 1.0E-05 M; alpha2A (h) (antagonist radioligand)
alpha2A (h), sequence (P08913 whole entry): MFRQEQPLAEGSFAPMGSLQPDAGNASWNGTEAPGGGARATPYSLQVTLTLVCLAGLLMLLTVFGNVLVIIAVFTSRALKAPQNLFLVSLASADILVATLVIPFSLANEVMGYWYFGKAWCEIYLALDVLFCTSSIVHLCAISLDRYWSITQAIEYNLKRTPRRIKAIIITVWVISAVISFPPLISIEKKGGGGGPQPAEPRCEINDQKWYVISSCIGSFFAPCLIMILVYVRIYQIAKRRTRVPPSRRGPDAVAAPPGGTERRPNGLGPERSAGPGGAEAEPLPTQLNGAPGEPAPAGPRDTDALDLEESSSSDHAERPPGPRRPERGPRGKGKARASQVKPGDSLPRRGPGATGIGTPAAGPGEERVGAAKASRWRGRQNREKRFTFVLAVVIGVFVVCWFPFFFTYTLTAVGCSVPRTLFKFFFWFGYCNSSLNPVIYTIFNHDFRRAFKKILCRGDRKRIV

[12] = target: alpha2B (h) (Homo sapiens, UniProt P18089)
[13] = target: V1a (h) (Homo sapiens, UniProt P37288); details: compound concentration 1.0E-05 M
V1a (h), sequence (P37288 whole entry): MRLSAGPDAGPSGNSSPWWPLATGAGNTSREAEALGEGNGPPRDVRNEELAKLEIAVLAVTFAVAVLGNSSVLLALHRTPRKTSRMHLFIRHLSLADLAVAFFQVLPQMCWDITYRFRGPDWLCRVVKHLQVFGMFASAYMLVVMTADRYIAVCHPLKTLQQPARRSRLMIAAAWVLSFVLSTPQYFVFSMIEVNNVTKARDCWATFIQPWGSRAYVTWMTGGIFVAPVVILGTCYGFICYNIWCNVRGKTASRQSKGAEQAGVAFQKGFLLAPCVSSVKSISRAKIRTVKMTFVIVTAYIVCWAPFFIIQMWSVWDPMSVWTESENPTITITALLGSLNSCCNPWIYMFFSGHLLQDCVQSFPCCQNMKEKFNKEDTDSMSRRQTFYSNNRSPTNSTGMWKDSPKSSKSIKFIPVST

[14] = target: B2 (h) (Homo sapiens, UniProt P30411); details: 1.0E-05 M; B2 (h) (agonist radioligand)
[15] = target: beta1 (h) (Homo sapiens, UniProt P08588); details: 1.0E-05 M; beta1 (h) (agonist radioligand)
[16] = target: CYP2C19 (Homo sapiens, UniProt P33261); experiment: in vitro; details: human liver microsomes, probe omeprazole
[17] = target: CYP2D6 (Homo sapiens, UniProt P10635); experiment: in vitro; details: human liver microsomes, probe dextromethorphan
CYP2D6, sequence (P10635 whole entry): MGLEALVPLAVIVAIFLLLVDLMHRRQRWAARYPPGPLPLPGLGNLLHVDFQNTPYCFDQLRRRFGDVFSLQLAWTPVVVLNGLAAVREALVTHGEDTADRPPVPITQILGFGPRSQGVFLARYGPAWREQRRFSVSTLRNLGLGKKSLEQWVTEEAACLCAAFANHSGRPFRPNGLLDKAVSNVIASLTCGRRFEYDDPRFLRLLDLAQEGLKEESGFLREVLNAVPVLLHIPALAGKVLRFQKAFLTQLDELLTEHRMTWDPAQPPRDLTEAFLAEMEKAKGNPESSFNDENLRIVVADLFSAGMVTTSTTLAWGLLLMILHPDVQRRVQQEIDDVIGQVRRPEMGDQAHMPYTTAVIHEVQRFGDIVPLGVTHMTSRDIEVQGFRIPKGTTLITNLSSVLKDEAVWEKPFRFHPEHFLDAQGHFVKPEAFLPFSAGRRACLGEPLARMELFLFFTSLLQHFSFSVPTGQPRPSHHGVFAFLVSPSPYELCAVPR

[18] = target: CGRP (h) (Homo sapiens, UniProt O60894+Q16602); experiment: biochemical
CGRP (h), sequence (Q16602 23-461): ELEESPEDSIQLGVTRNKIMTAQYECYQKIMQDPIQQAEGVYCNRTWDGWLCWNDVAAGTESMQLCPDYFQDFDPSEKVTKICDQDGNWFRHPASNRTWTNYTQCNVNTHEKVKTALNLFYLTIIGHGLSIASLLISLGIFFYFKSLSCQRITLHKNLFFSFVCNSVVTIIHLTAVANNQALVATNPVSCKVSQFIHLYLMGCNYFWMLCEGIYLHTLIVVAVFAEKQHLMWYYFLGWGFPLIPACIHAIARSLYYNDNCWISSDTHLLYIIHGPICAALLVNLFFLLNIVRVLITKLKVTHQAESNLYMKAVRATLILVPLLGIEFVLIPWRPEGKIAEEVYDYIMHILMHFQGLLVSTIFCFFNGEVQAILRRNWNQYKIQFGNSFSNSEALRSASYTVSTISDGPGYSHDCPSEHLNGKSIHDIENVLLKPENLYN
CGRP (h), sequence (O60894 27-148): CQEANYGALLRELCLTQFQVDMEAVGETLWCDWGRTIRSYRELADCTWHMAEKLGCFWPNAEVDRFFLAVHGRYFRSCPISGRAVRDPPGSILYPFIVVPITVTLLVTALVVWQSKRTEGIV

[19] = target: D1 (h) (Homo sapiens, UniProt P21728); experiment: biochemical
D1 (h), sequence (P21728 whole entry): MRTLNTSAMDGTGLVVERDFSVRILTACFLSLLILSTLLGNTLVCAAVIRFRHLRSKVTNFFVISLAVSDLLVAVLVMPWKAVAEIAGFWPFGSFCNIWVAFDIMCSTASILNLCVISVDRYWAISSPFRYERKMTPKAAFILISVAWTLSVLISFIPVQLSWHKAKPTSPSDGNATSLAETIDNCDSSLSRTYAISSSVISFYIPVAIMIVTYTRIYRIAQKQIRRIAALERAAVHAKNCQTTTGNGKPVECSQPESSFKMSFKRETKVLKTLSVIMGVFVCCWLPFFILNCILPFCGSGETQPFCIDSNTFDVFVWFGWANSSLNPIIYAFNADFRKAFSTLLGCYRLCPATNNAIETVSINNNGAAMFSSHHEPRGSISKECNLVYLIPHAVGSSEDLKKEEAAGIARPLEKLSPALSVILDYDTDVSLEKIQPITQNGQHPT

[20] = target: mu (MOP) (h) (Homo sapiens, UniProt P35372); experiment: Eurofins panel: mu (MOP) (h) (agonist radioligand); details: compound concentration 1.0E-05 M
mu (MOP) (h), sequence (P35372 whole entry): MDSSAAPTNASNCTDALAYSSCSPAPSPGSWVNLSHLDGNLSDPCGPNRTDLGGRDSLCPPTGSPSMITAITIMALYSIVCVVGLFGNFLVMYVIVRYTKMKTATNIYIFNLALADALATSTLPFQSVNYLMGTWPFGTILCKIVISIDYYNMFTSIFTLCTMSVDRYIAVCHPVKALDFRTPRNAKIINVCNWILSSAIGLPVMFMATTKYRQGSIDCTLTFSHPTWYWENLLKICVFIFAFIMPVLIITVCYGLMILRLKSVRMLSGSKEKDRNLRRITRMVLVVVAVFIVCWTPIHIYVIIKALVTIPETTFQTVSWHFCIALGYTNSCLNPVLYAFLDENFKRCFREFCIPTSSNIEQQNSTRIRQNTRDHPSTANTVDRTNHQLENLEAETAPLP

[21] = target: T4, M5 (h) (Homo sapiens, UniProt P08912); experiment: M5 (h) (antagonist radioligand), Eurofins assay 97
T4 sequence (P08912 1-532): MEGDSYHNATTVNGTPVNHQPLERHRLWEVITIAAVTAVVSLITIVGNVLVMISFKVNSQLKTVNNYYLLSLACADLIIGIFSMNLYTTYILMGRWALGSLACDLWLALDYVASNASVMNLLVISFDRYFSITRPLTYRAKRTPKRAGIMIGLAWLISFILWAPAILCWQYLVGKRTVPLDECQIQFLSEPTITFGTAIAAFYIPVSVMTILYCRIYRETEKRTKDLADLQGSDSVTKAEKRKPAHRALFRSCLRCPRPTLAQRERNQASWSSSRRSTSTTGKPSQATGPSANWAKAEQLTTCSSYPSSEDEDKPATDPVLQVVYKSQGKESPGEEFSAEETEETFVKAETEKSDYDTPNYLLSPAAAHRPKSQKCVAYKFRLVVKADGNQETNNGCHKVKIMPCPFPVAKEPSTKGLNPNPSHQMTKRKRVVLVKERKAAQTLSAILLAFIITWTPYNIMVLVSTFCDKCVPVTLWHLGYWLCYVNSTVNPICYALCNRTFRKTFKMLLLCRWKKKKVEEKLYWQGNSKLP

[22] = target: T5, alpha1A (h) (Homo sapiens, UniProt P35348); experiment: Eurofins panel: alpha1A (h) (antagonist radioligand); details: 1.0E-05 M; alpha1A (h) (antagonist radioligand)
T5 sequence (P35348 1-466): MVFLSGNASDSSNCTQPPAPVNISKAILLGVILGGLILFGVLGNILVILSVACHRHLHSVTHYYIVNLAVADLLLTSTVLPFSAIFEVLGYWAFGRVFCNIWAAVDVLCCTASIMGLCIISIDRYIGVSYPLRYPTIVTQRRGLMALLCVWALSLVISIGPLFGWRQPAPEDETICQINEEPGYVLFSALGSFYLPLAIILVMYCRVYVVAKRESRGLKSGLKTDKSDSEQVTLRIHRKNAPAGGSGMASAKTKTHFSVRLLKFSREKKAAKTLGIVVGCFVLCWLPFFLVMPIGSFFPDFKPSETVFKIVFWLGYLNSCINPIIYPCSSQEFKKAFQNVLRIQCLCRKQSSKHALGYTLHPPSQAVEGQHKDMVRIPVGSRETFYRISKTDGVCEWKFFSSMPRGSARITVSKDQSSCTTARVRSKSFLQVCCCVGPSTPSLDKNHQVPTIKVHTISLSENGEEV

[23] = target: BZDp (TSPO) (h) (Homo sapiens, UniProt P30536); experiment: Eurofins panel: BZDp (TSPO) (h) (antagonist radioligand); details: 1.0E-05 M; BZDp (TSPO) (h) (antagonist radioligand)
[24] = target: dopamine transporter (h) (Homo sapiens, UniProt Q01959); experiment: dopamine transporter (h) (antagonist radioligand), Eurofins assay 52
dopamine transporter (h), sequence (Q01959 whole entry): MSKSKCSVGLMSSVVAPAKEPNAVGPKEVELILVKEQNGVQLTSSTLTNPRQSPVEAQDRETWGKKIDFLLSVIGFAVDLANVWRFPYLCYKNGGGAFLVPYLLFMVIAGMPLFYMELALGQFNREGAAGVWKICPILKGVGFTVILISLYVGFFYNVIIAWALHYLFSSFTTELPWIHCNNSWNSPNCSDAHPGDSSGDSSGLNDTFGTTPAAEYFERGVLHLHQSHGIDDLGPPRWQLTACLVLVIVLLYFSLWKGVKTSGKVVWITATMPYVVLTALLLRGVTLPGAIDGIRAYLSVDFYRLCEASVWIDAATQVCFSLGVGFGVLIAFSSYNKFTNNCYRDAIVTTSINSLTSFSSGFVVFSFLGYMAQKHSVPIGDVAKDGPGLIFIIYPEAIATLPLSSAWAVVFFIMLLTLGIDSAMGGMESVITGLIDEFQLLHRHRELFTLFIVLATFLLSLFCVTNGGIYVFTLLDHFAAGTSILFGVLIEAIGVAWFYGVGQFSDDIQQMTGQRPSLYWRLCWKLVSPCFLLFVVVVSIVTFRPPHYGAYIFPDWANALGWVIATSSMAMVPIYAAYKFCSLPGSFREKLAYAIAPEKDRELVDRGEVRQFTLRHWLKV

SMILES: Fc1nc(N2CCOCC2)ccc1-c1cc2ccccc2[nH]1 [Compound 75, 4-(6-Fluoro-5-(1H-indol-2-yl)pyridin-2-yl)morpholine]
- % Inhibition, Specific binding [1]: -1.89E+01%
- inhibition at 10 µM [2]: 8.53%
- inhibition at 10 µM [3]: 18.1%
- inhibition at 10 µM [4]: 3.36%
- inhibition at 10 µM [5]: 7.11%
- % Inhibition, Specific binding [6]: -3.62E+00%
- inhibition at 10 µM [7]: -8.86%
- % Inhibition, Specific binding [8]: -1.11E+01%
- % Inhibition, Specific binding [9]: 25.3038%
- % Inhibition, Specific binding [10]: -4.77E+00%
- % Inhibition, Specific binding [11]: -8.25E+00%
- % Inhibition, Specific binding [12]: 2.179%
- % Inhibition, Specific binding [13]: -8.82E-01%
- % Inhibition, Specific binding [14]: -1.15E+01%
- % Inhibition, Specific binding [15]: 12.2039%
- inhibition at 10 µM [16]: -0.914%
- inhibition at 10 µM [17]: 13.6%
- inhibition at 10 µM [18]: -5.83%
- inhibition at 10 µM [19]: -11.8%
- % Inhibition, Specific binding [20]: -1.17E+00%
- inhibition at 10 µM [21]: 1.64%
- % Inhibition, Specific binding [22]: 3.065%
- % Inhibition, Specific binding [23]: 21.7657%
- inhibition at 10 µM [24]: 17.2%
